# Experimental data as given in publication PMC9820430, “New Affordable Methods for Large-Scale Isolation of Major Olive Secoiridoids and Systematic Comparative Study of Their Antiproliferative/Cytotoxic Effect on Multiple Cancer Cell Lines of Different Cancer Origins” (International Journal of Molecular Sciences, 2022).
# Test system: Hela
# Test: EdU incorporation cell proliferation assay, 24 h
# Format: cell-based, human
# Conditions: 24 h at EC50, normalized with the control
# Procedure: (§1) For this purpose, ten cancer cell lines (i.e., MDA-MB 231, SK-BR-3, MCF-7, A2058, SK-MEL-28, AGS, HepG-2, PANC-1, H1299 and Hela) originating from breast, melanoma, stomach, hepatic, pancreatic, lung and cervical tumors were analyzed in parallel with control samples (i.e., the same cells treated only with 0.2% (v/v) DMSO). […] Subsequently, the treated cells were allowed to incorporate 5-ethynyl-2′-deoxyuridine (EdU) into replicating DNA according to the protocol described in detail in the Experimental Section. EdU, a thymidine analog, can be incorporated into DNA in vivo and detected later by using copper-catalyzed azide–alkyne cycloaddition (click reaction) without prior DNA denaturation. The pool of cells in the S phase can be then easily detected by fluorescence (FL) microscopy or by flow cytometry by analyzing the incorporation of EdU in replicating DNA of single cells. In this study, after EdU incorporation, the nuclei of the entire cell population were stained with Hoechst and imaged by confocal microscopy (Experimental Section). EdU-positive nuclei, marked by green FL, as well as the total number of nuclei, marked by blue FL, were enumerated by applying the Icy image analysis algorithm on the digital images acquired by confocal microscopy.
# (§2) Human cancer cells were plated onto sterile glass coverslips (10-mm diameter, 5161063, ThermoFisher Scientific, Waltham, MA, USA) in 24-well tissue culture plates, at a density 5 times the density of cells seeded in 96-well plate and at a final medium volume of 500 μL. In order to obtain homogeneous plating, 250 μL of the medium was added directly to the wells already containing coverslips. Using a tip perpendicularly, coverslips were pressed in order to ensure their attachment to the bottom of the well. The cells were then seeded by adding 250 μL of single-cell suspension drop by drop following a cross path. Immediately after seeding, the plate was shaken back and forth at least ten times to achieve homogeneous plating. The cells were allowed to adhere overnight (~16 h) at 37 °C and 5% (v/v) CO2. The next day, a volume of 500 μL fresh medium was added to each well and the treatment with OOPs was initiated by adding directly to the wells 2 μL of OOPs from the 500× stock in DMSO and immediately mixed afterward by pipetting. […] Control cells were prepared under the same experimental conditions using DMSO instead of the OOPs’ solutions in DMSO at the same final concentration (0.2% (v/v) DMSO). […] Each condition was performed in duplicate. After treatment with the OOPs, live proliferating mammalian cells were labeled with 5-ethynyl-2’-deoxyuridine (EdU), a nucleoside analog of thymidine, using the Cell proliferation kit III (EdU-FM, PK-CA724-488FM, Promokine, Heidelberg, Germany). More specifically, a 20 μM EdU solution from a 10 mM stock in DMSO was prepared in a fresh culture medium. Culture supernatant was removed from treated cells to leave only 250 μL. An equal volume of 20 μM EdU solution was added and mixed with the medium to obtain a 10 μΜ EdU final concentration. The treated cells were incubated for the desired time of pulse length (2–4 h) under conditions optimal for each cell type depending on each cell line’s doubling time. Following incubation, cells were washed twice with PBS, then fixed with 4% (w/v) paraformaldehyde in PBS for 15 min at room temperature (RT), and subsequently washed twice with 3% (w/v) BSA for 5 min each time. Cells were permeabilized by incubation (20 min, RT, in the dark) with 0.5% (v/v) Triton-X 100 in PBS. Following permeabilization the cells were washed twice with 3% (w/v) BSA in PBS and incubated for 30 min with the reaction cocktail, according to the instructions of the Cell proliferation kit III (EdU-488; FM). After staining for replicating DNA, the cells were washed three times with 3% (w/v) BSA in PBS, and were then incubated (10 min, at RT) with Hoechst 33342 in PBS (1:10.000) to visualize all the nuclei. […]
row,Compound,% Inhibition ± SE of cell proliferation
1,"COC(=O)C1=COC(C)[C@@H](C=O)[C@@H]1CC(=O)OCCc1ccc(O)c(O)c1 (mixture of isomers) [3a,b, oleuropein aglycone]",24.3 ± 2.1%
2,"C/C=C(/C=O)[C@@H](CC=O)CC(=O)OCCc1ccc(O)c(O)c1 [compound 2, oleacein]",23.6 ± 7.9%
3,"ligstroside aglycone [4a,b]",14.1 ± 6.3%

# Same assay, conditions: 24 h treatment at EC50 concentration
row,Compound,% EdU +ve ± SE (S-phase cells)
1,"COC(=O)C1=COC(C)[C@@H](C=O)[C@@H]1CC(=O)OCCc1ccc(O)c(O)c1 (mixture of isomers) [3a,b, oleuropein aglycone]",20.9 ± 3.5%
2,"C/C=C(/C=O)[C@@H](CC=O)CC(=O)OCCc1ccc(O)c(O)c1 [compound 2, oleacein]",21.7 ± 6.5%
3,"ligstroside aglycone [4a,b]",31.2 ± 4.9%

# Test system: HepG-2
# Test: EdU incorporation cell proliferation assay, 24 h
# Format: cell-based, human
# Conditions: 24 h at EC50, normalized with the control
# Procedure: as §1, §2
row,Compound,% Inhibition ± SE of cell proliferation
1,"COC(=O)C1=COC(C)[C@@H](C=O)[C@@H]1CC(=O)OCCc1ccc(O)c(O)c1 (mixture of isomers) [3a,b, oleuropein aglycone]",28.4 ± 0.1%
2,"ligstroside aglycone [4a,b]",27.0 ± 1.1%

# Same assay, conditions: 24 h treatment at EC50 concentration
row,Compound,% EdU +ve ± SE (S-phase cells)
1,"COC(=O)C1=COC(C)[C@@H](C=O)[C@@H]1CC(=O)OCCc1ccc(O)c(O)c1 (mixture of isomers) [3a,b, oleuropein aglycone]",10.6 ± 3.1%
2,"C/C=C(/C=O)[C@@H](CC=O)CC(=O)OCCc1ccc(O)cc1 [compound 1, oleocanthal]",26.4 ± 1.5%
3,"ligstroside aglycone [4a,b]",12.0 ± 2.0%

# Test system: PANC-1
# Test: EdU incorporation cell proliferation assay, 24 h
# Format: cell-based, human
# Conditions: 24 h at EC50, normalized with the control
# Procedure: as §1, §2
row,Compound,% Inhibition ± SE of cell proliferation
1,"COC(=O)C1=COC(C)[C@@H](C=O)[C@@H]1CC(=O)OCCc1ccc(O)c(O)c1 (mixture of isomers) [3a,b, oleuropein aglycone]",23.6 ± 0.8%
2,"ligstroside aglycone [4a,b]",23.4 ± 2.7%

# Same assay, conditions: 24 h treatment at EC50 concentration
row,Compound,% EdU +ve ± SE (S-phase cells)
1,"COC(=O)C1=COC(C)[C@@H](C=O)[C@@H]1CC(=O)OCCc1ccc(O)c(O)c1 (mixture of isomers) [3a,b, oleuropein aglycone]",21.9 ± 5.3%
2,"C/C=C(/C=O)[C@@H](CC=O)CC(=O)OCCc1ccc(O)cc1 [compound 1, oleocanthal]",23.6 ± 5.8%
3,"C/C=C(/C=O)[C@@H](CC=O)CC(=O)OCCc1ccc(O)c(O)c1 [compound 2, oleacein]",37.6 ± 7.1%
4,"ligstroside aglycone [4a,b]",22.1 ± 7.2%

# Test system: MDA-MB 231
# Test: EdU incorporation cell proliferation assay, 24 h
# Format: cell-based, human
# Conditions: 24 h at EC50, normalized with the control
# Procedure: as §1, §2
row,Compound,% Inhibition ± SE of cell proliferation
1,"COC(=O)C1=COC(C)[C@@H](C=O)[C@@H]1CC(=O)OCCc1ccc(O)c(O)c1 (mixture of isomers) [3a,b, oleuropein aglycone]",21.5 ± 2.1%
2,"C/C=C(/C=O)[C@@H](CC=O)CC(=O)OCCc1ccc(O)c(O)c1 [compound 2, oleacein]",15.7 ± 2.4%
3,"ligstroside aglycone [4a,b]",8.2 ± 1.8%

# Same assay, conditions: 24 h treatment at EC50 concentration
row,Compound,% EdU +ve ± SE (S-phase cells)
1,"COC(=O)C1=COC(C)[C@@H](C=O)[C@@H]1CC(=O)OCCc1ccc(O)c(O)c1 (mixture of isomers) [3a,b, oleuropein aglycone]",19.7 ± 3.1%
2,"C/C=C(/C=O)[C@@H](CC=O)CC(=O)OCCc1ccc(O)cc1 [compound 1, oleocanthal]",29.1 ± 2.3%
3,"C/C=C(/C=O)[C@@H](CC=O)CC(=O)OCCc1ccc(O)c(O)c1 [compound 2, oleacein]",25.5 ± 4.1%
4,"ligstroside aglycone [4a,b]",33.0 ± 2.8%

# Test system: AGS
# Test: ATP assay under 1% (v/v) O2 versus 20% (v/v) O2, 72 h
# Format: cell-based, human
# Conditions: 1% (v/v) O2 vs 20% (v/v) O2
# Procedure: The effects of drugs on cancer cell lines are usually tested under atmospheric conditions (20% (v/v) O2). However, the O2 content in tissues (normoxia) and solid tumors (hypoxia) is ≤ 5% (v/v). In some tumors (i.e., pancreatic tumors) the % O2 is even ≤ 1% (v/v). This affects cell metabolism and signaling pathways which depend on the hypoxia-induced Factor 1A (HIF1A) and it could affect the activity of certain drugs. […] The effects of these three OOPs were tested on the MDA-MB 231, SK-BR-3 and MCF-7 breast cancer and on the AGS stomach cancer cell lines.
# Figure 6 Effect of O2 concentration on the antiproliferative/cytotoxic effect of OOPs. […] Cell viability was determined on (A) AGS, (B) MDA-MB 231, (C) MCF-7 and (D) SK-BR-3 cell lines using ATP-based luminescence assay. The results presented are from two independent experiments performed in triplicate. Bar graphs represent the mean cell count ± SE in each treatment group normalized to the control group (i.e., cells treated only with 0.2% (v/v) DMSO). * p < 0.05; ** p ≤ 0.01; *** p ≤ 0.001 (t-test) comparing the two different conditions.
row,Compound,bioactivity under hypoxia versus atmospheric O2
1,"COC(=O)C1=COC(C)[C@@H](C=O)[C@@H]1CC(=O)OCCc1ccc(O)c(O)c1 (mixture of isomers) [3a,b, oleuropein aglycone]",similar
2,"C/C=C(/C=O)[C@@H](CC=O)CC(=O)OCCc1ccc(O)cc1 [compound 1, oleocanthal]",similar
3,"ligstroside aglycone [4a,b]",less effective under hypoxic conditions
